Laboratory results taken from patent US20210147801A1, “METHODS FOR INCREASING EXPANSION AND IMMUNOSUPPRESSIVE CAPACITY OF A POPULATION OF CD8+CD45RCLOW/- TREGS” (INSERM (INSTITUT NATIONAL DE LA SANTÉ ET DE LA RECHERCHE …, priority 2017, published 2021).

Legend:
Type in all cases: cell-based, human
CD8+CD45RClow/- Tregs [1] = test: Expansion of CD8+CD45RClow/- Tregs with anti-CD3/anti-CD28 in medium supplemented with immunosuppressive drugs (14 days); settings: rapamycin 45 ng/ml, methylprednisolone 500 pg/ml, mycophenolate mofetil 1 μg/ml; for expansion yield: Example 3, FIG. 3, cyclosporine A 45 ng/ml, tacrolimus 2 ng/ml, vs no IS drug
Description: CD8^+CD45RC^low/− Tregs from fresh or thawed PBMCs were seeded at 3×10^5/ml in RPMI1640 medium supplemented with 10% AB serum, Penicillin (100 U/ml), Streptomycin (0.1 mg/ml), Sodium pyruvate (1 mM), Glutamine (2 mM), Hepes Buffer (1 mM), non-essential amino acids (1×), IL-2 (1000 U/ml) and IL-15 (10 ng/ml), and were stimulated with coated anti-CD3 mAb (1 μg/ml), soluble anti-CD28 mAb (1 μg/ml) and/or allogeneic APCs at 1:4 Tregs: APCs ratio. At day 7, expanded cells were diluted at 1.5×10^5/ml and stimulated again with coated anti-CD3 and soluble anti-CD28 mAbs (1 μg/ml each). […] At day 14, expanded Tregs were washed with PBS before use. Suppressive activity was tested on CD8^+CD45RC^low/− Tregs expanded more than 10 fold in 7 days. For long-term expansion, CD8^+CD45RC^low/− Tregs and CD4^+CD25^highCD127^low/− Tregs were stimulated again with coated anti-CD3 (1 μg/ml) and soluble anti-CD28 MAbs (1 μg/ml) at days 14 and 21 and IL-2 and IL-15 cytokines were freshly added every 2 days from day 7 to 28. Culture medium 1× cytokines (IL-2 (1000 U/ml) and IL-15 (10 ng/ml)) was added when required.

CD8+CD45RClow/- Tregs [2] = test: Suppressive activity of drug-expanded Tregs on CD4+CD25- effector T cells stimulated with allogeneic APCs (CFSE); settings: for suppressive activity of Tregs: Example 3, FIG. 3, Tregs harvested at day 14, 1:1:1 Tregs:Teff:APCs, same drug concentrations, vs no IS drug
Description: CD8^+CD45RC^low/− Tregs from fresh or thawed PBMCs were seeded at 3×10^5/ml in RPMI1640 medium supplemented with 10% AB serum, Penicillin (100 U/ml), Streptomycin (0.1 mg/ml), Sodium pyruvate (1 mM), Glutamine (2 mM), Hepes Buffer (1 mM), non-essential amino acids (1×), IL-2 (1000 U/ml) and IL-15 (10 ng/ml), and were stimulated with coated anti-CD3 mAb (1 μg/ml), soluble anti-CD28 mAb (1 μg/ml) and/or allogeneic APCs at 1:4 Tregs: APCs ratio. At day 7, expanded cells were diluted at 1.5×10^5/ml and stimulated again with coated anti-CD3 and soluble anti-CD28 mAbs (1 μg/ml each). […] At day 14, expanded Tregs were washed with PBS before use. Suppressive activity was tested on CD8^+CD45RC^low/− Tregs expanded more than 10 fold in […]. For long-term expansion, CD8^+CD45RC^low/− Tregs and CD4^+CD25^highCD127^low/− Tregs were stimulated again with coated anti-CD3 (1 μg/ml) and soluble anti-CD28 MAbs (1 μg/ml) at days 14 and 21 and IL-2 and IL-15 cytokines were freshly added every 2 days from day 7 to 28. Culture medium 1× cytokines (IL-2 (1000 U/ml) and IL-15 (10 ng/ml)) was added when required.
We tested the effect of immunosuppressive drugs (at concentrations used in the clinic) on CD8^+CD45RC^low/− Tregs survival 7 days following the 14 days expansion (FIG. 1) or on the expansion yield and suppressive function score of CD8^+CD45RC^low/− Tregs during the 14 days expansion (FIG. 3D).
Methods: Fresh blood was taken from 1 healthy volunteer, PBMCs were isolated by Ficoll centrifugation, washed in PBS, adjusted at 2×10^8 PBMC/ml in PBS-FCS-EDTA and were incubated with anti-CD3-PeCy7, anti CD4-PerCPCy5.5 and anti-CD45RC FITC 30′ 4° C. Cells were washed with PBS-FCS-EDTA, filtered on 60 μm tissue, labeled with Dapi and FACS Aria sorted on lymphocyte morphology, exclusion of doublet cells, and DAPI-CD3^+CD4^−CD45RC^low/− expression. […] At days 10 and 12, cytokines were freshly added. Expanded Tregs were harvested at day 14 for suppressive activity assessment. […] After 5 days culture, Teff proliferation was analyzed by CFSE analysis in DAPI^−CD4±CD3^+ T cells.

CD8+CD45RClow/- Tregs [3] = test: Tregs associated markers expression at day 21 after 7 d culture in IS-supplemented medium; settings: Example 4, FIG. 4, tacrolimus 2 ng/ml, compared to drug free medium
Description: Methods: Fresh blood was taken from 1 healthy volunteer, PBMCs were isolated by Ficoll centrifugation, washed in PBS, adjusted at 2×10^8 PBMC/ml in PBS-FCS-EDTA and were incubated with anti-CD3-PeCy7, anti CD4-PerCPCy5.5 and anti-CD45RC FITC 30′ 4° C. Cells were washed with PBS-FCS-EDTA, filtered on 60 μm tissue, labeled with Dapi and FACS Aria sorted on lymphocyte morphology, exclusion of doublet cells, and DAPI-CD3^+CD4^−CD45RC^low/− expression. […] At days 7, Tregs were harvested, counted, washed, and plated at 5×10^5Tregs/well/3 ml in p6 plate previously coated with anti-CD3 (OKT3 clone, 1 μg/ml in PBS, 1 ml/well, 1 h at 37° C. then washed with PBS 3 times), in RPMI1640 medium supplemented with 10% AB serum, Penicillin (100 U/ml), Streptomycin (0.1 mg/ml), Sodium pyruvate (1 mM), Glutamine (2 mM), Hepes Buffer (1 mM), non-essential amino acids (1×), IL-2 (1000 U/ml) and IL-15 (10 ng/ml), anti-CD28 mAbs (clone CD28.2, soluble, 1 μg/ml). […] Tregs were analyzed at day 21 for survival/expansion yield and phenotype.

Row | SMILES | expansion yield (CD8+CD45RClow/- Tregs [1]) | suppressive activity of Tregs (CD8+CD45RClow/- Tregs [2]) | IFNg expression by Tregs (CD8+CD45RClow/- Tregs [3]) | expansion fold (CD8+CD45RClow/- Tregs [1]; Example 1, FIG. 3D, drugs added alone during 14 days or subsequently (day 0-7, then day 7-14), vs no immunosuppressor (NT)) | suppression capacity (CD8+CD45RClow/- Tregs [2]; Example 1, FIG. 3D, Tregs expanded 14 days with drugs alone or subsequently, vs no immunosuppressor (NT))
1 | C=CC[C@@H]1/C=C(\C)C[C@H](C)C[C@H](OC)[C@H]2O[C@@](O)(C(=O)C(=O)N3CCCC[C@H]3C(=O)O[C@H](/C(C)=C/[C@@H]3CC[C@@H](O)[C@H](OC)C3)[C@H](C)[C@@H](O)CC1=O)[C@H](C)C[C@@H]2OC [Tacrolimus, tacrolimus] | improved | improved | significantly decreased | – | –
2 | COc1c(C)c2c(c(O)c1C/C=C(\C)CCC(=O)OCCN1CCOCC1)C(=O)OC2 [mycophenolate mofetil] | deleterious | deleterious | – | inhibited the expansion by rapamycin | decreased suppression
